From patent publication US10472336B2, “Modulators of indoleamine 2,3-dioxygenase” (GlaxoSmithKline Intellectual Property (No.2) Limited, priority 2015, dated 2019)

What was measured:
[1] = molecular target: T1, indoleamine 2, 3-dioxygenase (IDO1) (Homo sapiens, UniProt P14902); assay: HeLa IDOi assay (kynurenine detection by mass spectrometry); type: cell-based; design: human epithelial HeLa cells (CCL-2; host or cells: HeLa cells stimulated with human IFN-γ; conditions: IFN-γ stimulated human epithelial HeLa cells, 2 days
Experimental: (§1) Compounds of the present invention were tested via high-throughput cellular assays utilizing detection of kynurenine via mass spectrometry and cytotoxicity as end-points. For the mass spectrometry and cytotoxicity assays, human epithelial HeLa cells (CCL-2; ATCC®, Manassas, Va.) were stimulated with human interferon-γ (IFN-γ) (Sigma-Aldrich Corporation, St. Louis, Mo.) to induce the expression of indoleamine 2, 3-dioxygenase (IDO1). Compounds with IDO1 inhibitory properties decreased the amount of kynurenine produced by the cells via the tryptophan catabolic pathway. Cellular toxicity due to the effect of compound treatment was measured using CellTiter-Glo® reagent (CTG) (Promega Corporation, Madison, Wis.), which is based on luminescent detection of ATP, an indicator of metabolically active cells.
(§2) In preparation for the assays, test compounds were serially diluted 3-fold in DMSO from a typical top concentration of 5 mM and plated at 0.5 μL in 384-well, polystyrene, clear bottom, tissue culture treated plates with lids (Greiner Bio-One, Kremsmünster, Austria) to generate 11-point dose response curves. Low control wells (0% kynurenine or 100% cytotoxicity) contained either 0.5 μL of DMSO in the presence of unstimulated (−IFN-γ) HeLa cells for the mass spectrometry assay or 0.5 μL of DMSO in the absence of cells for the cytotoxicity assay, and high control wells (100% kynurenine or 0% cytotoxicity) contained 0.5 μL of DMSO in the presence of stimulated (+IFN-γ) HeLa cells for both the mass spectrometry and cytotoxicity assays.
Frozen stocks of HeLa cells were washed and recovered in DMEM high glucose medium with HEPES (Thermo Fisher Scientific, Inc., Waltham, Mass.) supplemented with 10% v/v certified fetal bovine serum (FBS) (Thermo Fisher Scientific, Inc., Waltham, Mass.), and 1× penicillin-streptomycin antibiotic solution (Thermo Fisher Scientific, Inc., Waltham, Mass.). The cells were diluted to 100,000 cells/mL in the supplemented DMEM medium. 50 μL of either the cell suspension, for the mass spectrometry assay, or medium alone, for the cytotoxicity assay, were added to the low control wells, on the previously prepared 384-well compound plates, resulting in 5,000 cells/well or 0 cells/well respectively. IFN-γ was added to the remaining cell suspension at a final concentration of 10 nM, and 50 μL of the stimulated cells were added to all remaining wells on the 384-well compound plates. The plates, with lids, were then placed in a 37° C., 5% CO2 humidified incubator for 2 days.
(§3) Following incubation, the 384-well plates were removed from the incubator and allowed to equilibrate to room temperature for 30 minutes. For the cytotoxicity assay, CellTiter-Glo® was prepared according to the manufacturer's instructions, and 10 μL were added to each plate well. After a twenty minute incubation at room temperature, luminescence was read on an EnVision® Multilabel Reader (PerkinElmer Inc., Waltham, Mass.). For the mass spectrometry assay, 10 μL of supernatant from each well of the compound-treated plates were added to 40 μL of acetonitrile, containing 10 μM of an internal standard for normalization, in 384-well, polypropylene, V-bottom plates (Greiner Bio-One, Kremsmünster, Austria) to extract the organic analytes. Following centrifugation at 2000 rpm for 10 minutes, 10 μL from each well of the acetonitrile extraction plates were added to 90 μL of sterile, distilled H2O in 384-well, polypropylene, V-bottom plates for analysis of kynurenine and the internal standard on the RapidFire 300 (Agilent Technologies, Santa Clara, Calif.) and 4000 QTRAP MS (SCIEX, Framingham, Mass.). MS data were integrated using Agilent Technologies' RapidFire Integrator software, and data were normalized for analysis as a ratio of kynurenine to the internal standard. […]

[2] = molecular target: T1, indoleamine 2, 3-dioxygenase (IDO1); assay: PBMC IDOi assay (kynurenine detection by mass spectrometry); type: cell-based; conditions: IFN-γ and LPS stimulated human PBMC, 2 days
Experimental: as §1, with “peripheral blood mononuclear” for “epithelial HeLa”, “(PBMC) (PB003F; AllCells®, Alameda, Calif.)” for “(CCL-2; ATCC®, Manassas, Va.)”, “Mo.) and lipopolysaccharide from Salmonella minnesota (LPS) (Invivogen, San Diego, Calif.)” for “Mo.)”
as §2, with “(−IFN-γ/−LPS) PBMCs” for “(−IFN-γ) HeLa cells”, “(+IFN-γ/+LPS) PBMCs” for “(+IFN-γ) HeLa cells”
Frozen stocks of PBMCs were washed and recovered in RPMI 1640 medium (Thermo Fisher Scientific, Inc., Waltham, Mass.) supplemented with 10% v/v heat-inactivated fetal bovine serum (FBS) (Thermo Fisher Scientific, Inc., Waltham, Mass.), and 1× penicillin-streptomycin antibiotic solution (Thermo Fisher Scientific, Inc., Waltham, Mass.). The cells were diluted to 1,000,000 cells/mL in the supplemented RPMI 1640 medium. 50 μL of either the cell suspension, for the mass spectrometry assay, or medium alone, for the cytotoxicity assay, were added to the low control wells, on the previously prepared 384-well compound plates, resulting in 50,000 cells/well or 0 cells/well respectively. IFN-γ and LPS were added to the remaining cell suspension at final concentrations of 100 ng/ml and 50 ng/ml respectively, and 50 μL of the stimulated cells were added to all remaining wells on the 384-well compound plates. The plates, with lids, were then placed in a 37° C., 5% CO2 humidified incubator for 2 days.
as §3, with “and 40” for “and 10”

T1 sequence (P14902 whole entry): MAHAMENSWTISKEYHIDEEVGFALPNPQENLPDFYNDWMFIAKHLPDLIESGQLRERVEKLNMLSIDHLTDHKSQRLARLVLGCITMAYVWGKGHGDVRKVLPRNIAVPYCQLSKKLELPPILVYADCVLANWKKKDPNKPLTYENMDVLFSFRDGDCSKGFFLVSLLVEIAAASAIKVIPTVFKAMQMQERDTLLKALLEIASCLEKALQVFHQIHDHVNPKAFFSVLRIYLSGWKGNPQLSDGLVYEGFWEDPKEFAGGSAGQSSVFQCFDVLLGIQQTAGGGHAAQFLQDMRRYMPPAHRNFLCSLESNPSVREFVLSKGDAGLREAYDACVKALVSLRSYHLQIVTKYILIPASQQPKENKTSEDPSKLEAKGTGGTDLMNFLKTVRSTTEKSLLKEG

Row | SMILES | EC50 [1] [nM] | EC50 [2] [nM]
1 | Cc1ccccc1CNc1cc(C(C)CC(=O)O)ccc1N(CC(C)C)C1CCCCC1 (centres unmarked) [Example 23, 3-(4-(cyclohexyl(isobutyl)amino)-3-((2-methylbenzyl)amino)phenyl)butanoic acid] | 316 | 200
2 | CC(C)CN(CC(C)C)c1ccc(C(C)CC(=O)O)cc1Nc1nc(Cl)ns1 (centres unmarked) [Example 25, 3-(3-((3-chloro-1,2,4-thiadiazol-5-yl)amino)-4-(diisobutylamino)phenyl)butanoic acid] | 31.6 | 25.1
3 | CC(C)CN(c1ccc([C@@H](C)CC(=O)O)cc1Nc1nc(Cl)ns1)C1CCCCC1 [Example 39, (S)-3-(3-((3-chloro-1,2,4-thiadiazol-5-yl)amino)-4-(cyclohexyl(isobutyl)amino)phenyl)butanoic acid] | 12.6 | 1.26
4 | CC(C)CN(CC(C)C)c1ccc([C@@H](C)CC(=O)O)cc1Nc1nc(Cl)ns1 [Example 41, (S)-3-(3-((3-chloro-1,2,4-thiadiazol-5-yl)amino)-4-(diisobutylamino)phenyl)butanoic acid] | 63.1 | 10
5 | CC(C)CN(CC(C)C)c1ccc([C@H](C)CC(=O)O)cc1Nc1nc(Cl)ns1 [Example 42, (R)-3-(3-((3-chloro-1,2,4-thiadiazol-5-yl)amino)-4-(diisobutylamino)phenyl)butanoic acid] | 39.8 | 7.94
6 | Cc1nnc(Nc2cc(C(C)CC(=O)O)ccc2N(CC(C)C)CC(C)C)[nH]1 (centres unmarked) [Example 47, 3-(4-(diisobutylamino)-3-((5-methyl-4H-1,2,4-triazol-3-yl)amino)phenyl)butanoic acid] | 158 | 200
7 | CC(C)CN(CC(C)C)c1ccc(C(C)CC(=O)O)cc1Nc1nnc(C2CC2)[nH]1 (centres unmarked) [Example 48, 3-(3-((5-cyclopropyl-4H-1,2,4-triazol-3-yl)amino)-4-(diisobutylamino)phenyl)butanoic acid] | 63.1 | 25.1
8 | CC(C)CN(c1ccc([C@H](C)CC(=O)O)cc1Nc1nnc(C2CC2)[nH]1)C1CCCCC1 [Example 50, (R)-3-(4-(cyclohexyl(isobutyl)amino)-3-((5-cyclopropyl-4H-1,2,4-triazol-3-yl)amino)phenyl)butanoic acid] | 10 | 2.51
9 | CC(C)CN(CC(C)C)c1ccc([C@@H](C)CC(=O)O)cc1Nc1nc(C(F)(F)F)ns1 [Example 53, (S)-3-(4-(diisobutylamino)-3-((3-(trifluoromethyl)-1,2,4-thiadiazol-5-yl)amino)phenyl)butanoic acid] | 10 | 3.16
10 | CC(C)CN(CC(C)C)c1ccc([C@H](C)CC(=O)O)cc1Nc1nc(C(F)(F)F)ns1 [Example 54, (R)-3-(4-(diisobutylamino)-3-((3-(trifluoromethyl)-1,2,4-thiadiazol-5-yl)amino)phenyl)butanoic acid] | 6.31 | 2

Further compounds by falling EC50 [1], results first:

Row | EC50 [1] [nM] | EC50 [2] [nM] | SMILES
11 | 6.31 | 0.631 | CC(C)CN(c1ccc([C@H](C)CC(=O)O)cc1Nc1nc(Cl)ns1)C1CCCCC1 [Example 40, (R)-3-(3-((3-chloro-1,2,4-thiadiazol-5-yl)amino)-4-(cyclohexyl(isobutyl)amino)phenyl)butanoic acid]
12 | 3.98 | 5.01 | CC(C)CN(CC(C)C)c1ccc(C(C)CC(=O)O)cc1Nc1nc(C(F)(F)F)ns1 (centres unmarked) [Example 34, 3-(4-(diisobutylamino)-3-((3-(trifluoromethyl)-1,2,4-thiadiazol-5-yl)amino)phenyl)butanoic acid]
13 | 3.98 | 1 | CC(C)CN(c1ccc([C@H](C)CC(=O)O)cc1Nc1nc(C(F)(F)F)ns1)C1CCCCC1 [Example 38, (R)-3-(4-(cyclohexyl(isobutyl)amino)-3-((3-(trifluoromethyl)-1,2,4-thiadiazol-5-yl)amino)phenyl)butanoic acid]
14 | 3.16 | 0.316 | CC(C)CN(c1ccc(C(C)CC(=O)O)cc1Nc1nnc(C(F)(F)F)s1)C1CCCCC1 (centres unmarked) [Example 29, 3-(4-(cyclohexyl(isobutyl)amino)-3-((5-(trifluoromethyl)-1,3,4-thiadiazol-2-yl)amino)phenyl)butanoic acid]
15 | 3.16 | 0.794 | CC(C)CN(c1ccc([C@H](C)CC(=O)O)cc1Nc1nc(C(F)(F)F)cs1)C1CCCCC1 [Example 49, (R)-3-(4-(cyclohexyl(isobutyl)amino)-3-((4-(trifluoromethyl)thiazol-2-yl)amino)phenyl)butanoic acid]
16 | 2 | 1 | CC(C)CN(c1ccc([C@@H](C)CC(=O)O)cc1Nc1nc(C(F)(F)F)ns1)C1CCCCC1 [Example 37, (S)-3-(4-(cyclohexyl(isobutyl)amino)-3-((3-(trifluoromethyl)-1,2,4-thiadiazol-5-yl)amino)phenyl)butanoic acid]
